In PMC11322497 (Frontiers in Pharmacology, 2024):

Legend:
[1] = Ex vivo plasma protein binding, terminal bleed after 5 days of acute dosing; assay type: in vitro ADME; settings: rabbit, plasma from dosed rabbits (ex vivo), oral, 30 mg/kg, terminal bleed after 5 days 30 mg/kg, week 12
[2] = test system: high fat diet (HFD) rabbit model of metabolic-associated steatohepatitis (MASH); assay: HFD rabbit study, prolonged 4-week treatment: liver histomorphology and immunohistochemistry; assay type: in vivo, New Zealand White rabbits; settings: weeks 9–12; for Ballooning score 0 (no ballooning), share of animals / Ballooning score 1 (few ballooned cells), share of animals / Ballooning score 2 (prominent ballooning), share of animals / Fibrosis (Ishak Score) 0, share of animals / Fibrosis (Ishak Score) 1, share of animals / Fibrosis (Ishak Score) 2, share of animals / Fibrosis (Ishak Score) 3, share of animals / Fibrosis (Ishak Score) 4, share of animals / Fibrosis (Ishak Score) 5, share of animals / Inflammation score 0 (no foci), share of animals / Inflammation score 1 (<2 foci), share of animals / Inflammation score 2 (2–4 foci), share of animals / Inflammation score 3 (> 4 foci), share of animals: n=7
Experimental: (§1) After 1 week (W) of RD, the animals (n = 44) were randomly assigned to the following groups (Table 1B): • Control rabbits continued to receive a RD for 12 weeks and were treated with vehicle for 5 days a week (days 1–5, p.o.) during the last 4 weeks before culling (RD + 4W Veh group); • Rabbits received a HFD for 8 weeks and were culled (HFD 8W group); • Rabbits received a HFD for 12 weeks and were treated with vehicle for 5 days a week (days 1–5, p.o.) during the last 4 weeks before culling (HFD+4W Veh group); • Rabbits received a HFD for 12 weeks and were treated with GB1211 (0.3 mg/kg) for 5 days a week (days 1–5, p.o.) during the last 4 weeks before culling (HFD + 4W 0.3 mg group); • Rabbits received a HFD for 12 weeks and were treated with GB1211 (1.0 mg/kg) for 5 days a week (days 1–5, p.o.) during the last 4 weeks before culling (HFD + 4W 1.0 mg group); • Rabbits received a HFD for 12 weeks and were treated with GB1211 (5.0 mg/kg) for 5 days a week (days 1–5, p.o.) during the last 4 weeks before culling (HFD + 4W 5.0 mg group).
Liver specimens were fixed in 10% buffered formalin (Sigma-Aldrich Corp., St. Louis, MO), paraffin embedded and sectioned at a thickness of 5 μm with a microtome. The slides were stained with hematoxylin and eosin (H&E; both Bio-Optica, Milan, Italy), following standard protocols for histological analysis, to evaluate the general morphology and tissue structure, and then analyzed to evaluate inflammation and […] using Giemsa and Masson’s trichrome staining, respectively. Briefly, deparaffinized and rehydrated sections were incubated with Giemsa (Bio-Optica) in distilled water at ratio 1:1 or with Masson’s trichrome (Bio-Optica), following the manufacturer’s instructions, as previously described ([Vignozzi et al., 2014]). To evaluate lipid accumulation, liver specimens were also cryosectioned at a thickness of 8 μm, fixed with 4% paraformaldehyde, treated for 2–5 min with isopropanol and stained with Oil Red O (Bio-Optica) for 20 min, following the manufacturer’s instructions.
In liver, collagen content evaluation for fibrosis grade and quantification was conducted by staining using Picrosirius Red Stain kit (Bio-Optica), as per manufacturer’s instructions. Briefly, deparaffinized and rehydrated sections were incubated with the staining solution for 50 min, rinsed with the appropriate reagents and with distilled water, dehydrated through ascending alcohols and xylene, and mounted, as previously described ([Comeglio et al., 2017]).
The expression of RAM11, galectin-3, and vimentin was evaluated by immunohistochemical analysis on 5 μm thick paraffin embedded liver sections. Briefly, deparaffinized and rehydrated sections were incubated overnight at 4°C with mouse monoclonal anti-RAM11 (1:80; Dako, Carpenteria, CA), mouse monoclonal anti-galectin-3 (1:100; Abcam, Cambridge, United Kingdom) or mouse monoclonal anti-vimentin (1:800; Santa Cruz Biotechnology, Dallas, TX) antibodies, followed by biotinylated anti-mouse secondary antibody (Millipore, Burlington, MA) and streptavidin-peroxidase complex (Millipore). The reaction product was developed with 3′,3′-diaminobenzidine tetrahydrochloride as chromogen (Merck KgaA, Darmstadt, Germany). Negative controls were performed avoiding primary antibody. Percentage of the sampled area for galectin-3 and vimentin staining was obtained on ×200 and ×40 original magnification slides, respectively, using ImageJ software on five fields for each slide. Semi-quantitative staining of percentage of the sampled area for Picrosirius Red, Oil Red O, galectin-3 and vimentin was obtained using open source Java-based ImageJ software (Fiji bundle, https://imagej.net/). All slides were evaluated blindly and photographed using a Nikon Microphot-FXA microscope (Nikon, Tokyo, Japan).

[3] = biological target: mouse galectin-3; design: method as in Zetterberg et al., 2022; settings: ref Zetterberg et al., 2022; read-out: binding affinity for mouse galectin-3; cited from earlier work
[4] = test system: high fat diet (HFD) rabbit model of metabolic-associated steatohepatitis (MASH); assay: HFD rabbit study, prolonged 4-week treatment: protein expression in liver homogenates; assay type: in vivo, New Zealand White rabbits; settings: HFD rabbits, weeks 9–12, mean±SD, n=3
Experimental: as §1
Quantitative analyses of collagen, IL6 and TNFα expression in liver biopsies were carried out using available commercial assays. Collagen content was evaluated in liver homogenates employing the Sircol S2000 assay (Biocolor, Carrickfergus, United Kingdom), in accordance with manufacturer’s protocols. Briefly, 30 mg liver biopsies were fragmented in the appropriate reagent and the supernatant was bound to a dye reagent containing Sirius Red, which would generate a colorimetric reaction quantified as absorbance using an internal collagen standard curve. IL6 and TNFα were quantified in liver homogenates using ELISA assay kits (both from Cloud-Clone Corp, Katy, TX). Briefly, 50 mg liver biopsies were homogenized in proprietary lysis buffer and the supernatants were analyzed by sandwich immunoassays, following the producer’s instructions.

Question: With `OC[C@H]1O[C@H](Sc2cncc(Br)c2)[C@H](O)[C@@H](n2cc(-c3cc(F)c(F)c(F)c3)nn2)[C@H]1O` [selvigaltin] as the molecule, how does the fraction unbound at 5 days ([1]; HFD rabbits) read?
Answer: 0.929

Question: And the fraction unbound at 5 days ([1]; RD rabbits)?
Answer: 0.946

Question: And the “Picrosirius Red percentage of fibrosis area” value ([2]; HFD rabbits, 0.3 mg and 5.0 mg dosages)?
Answer: only partially counteracted

Question: What about the “Ballooning score 0 (no ballooning), share of animals” value (from here on “Ballooning score 0 (no ballooning)”) ([2]; HFD rabbits, 0.3 mg/kg p.o.) of the same molecule?
Answer: 0.0%

Question: What about the “Ballooning score 1 (few ballooned cells), share of animals” value (shortened to “Ballooning score 1 (few ballooned cells)”) ([2]; HFD rabbits, 0.3 mg/kg p.o.) of the same molecule?
Answer: 42.9%

Question: What about the “Ballooning score 2 (prominent ballooning), share of animals” value ([2]; HFD rabbits, 0.3 mg/kg p.o.) of the same molecule?
Answer: 57.1%

Question: And the “Fibrosis (Ishak Score) 0, share of animals” value ([2]; HFD rabbits, 0.3 mg/kg p.o.)?
Answer: 0.0%

Question: What about the “Fibrosis (Ishak Score) 1, share of animals” value ([2]; HFD rabbits, 0.3 mg/kg p.o.) of the same molecule?
Answer: 14.3%

Question: And the “Fibrosis (Ishak Score) 2, share of animals” value ([2]; HFD rabbits, 0.3 mg/kg p.o.)?
Answer: 0.0%

Question: What about the “Fibrosis (Ishak Score) 3, share of animals” value ([2]; HFD rabbits, 0.3 mg/kg p.o.) of the same molecule?
Answer: 57.1%

Question: What about the “Fibrosis (Ishak Score) 4, share of animals” value ([2]; HFD rabbits, 0.3 mg/kg p.o.) of the same molecule?
Answer: 28.6%

Question: And the “Fibrosis (Ishak Score) 5, share of animals” value ([2]; HFD rabbits, 0.3 mg/kg p.o.)?
Answer: 0.0%

Question: What about the “Inflammation score 0 (no foci), share of animals” value (from here on “Inflammation score 0 (no foci)”) ([2]; HFD rabbits, 0.3 mg/kg p.o.) of the same molecule?
Answer: 14.3%

Question: What about the “Inflammation score 1 (<2 foci), share of animals” value (shortened to “Inflammation score 1 (<2 foci)”) ([2]; HFD rabbits, 0.3 mg/kg p.o.) of the same molecule?
Answer: 42.8%

Question: And the “Inflammation score 2 (2–4 foci), share of animals” value (“Inflammation score 2 (2–4 foci)” below) ([2]; HFD rabbits, 0.3 mg/kg p.o.)?
Answer: 42.8%

Question: And the “Inflammation score 3 (> 4 foci), share of animals” value (shortened to “Inflammation score 3 (> 4 foci)”) ([2]; HFD rabbits, 0.3 mg/kg p.o.)?
Answer: 0.0%

Question: And the “Ballooning score 0 (no ballooning)” value ([2]; HFD rabbits, 1.0 mg/kg p.o.)?
Answer: 0.0%

Question: What about the “Ballooning score 1 (few ballooned cells)” value ([2]; HFD rabbits, 1.0 mg/kg p.o.) of the same molecule?
Answer: 85.7%

Question: And the “Ballooning score 2 (prominent ballooning), share of animals” value ([2]; HFD rabbits, 1.0 mg/kg p.o.)?
Answer: 14.3%

Question: What about the “Fibrosis (Ishak Score) 0, share of animals” value ([2]; HFD rabbits, 1.0 mg/kg p.o.) of the same molecule?
Answer: 0.0%

Question: What about the “Fibrosis (Ishak Score) 1, share of animals” value ([2]; HFD rabbits, 1.0 mg/kg p.o.) of the same molecule?
Answer: 0.0%

Question: What about the “Fibrosis (Ishak Score) 2, share of animals” value ([2]; HFD rabbits, 1.0 mg/kg p.o.) of the same molecule?
Answer: 85.7%

Question: What about the “Fibrosis (Ishak Score) 3, share of animals” value ([2]; HFD rabbits, 1.0 mg/kg p.o.) of the same molecule?
Answer: 14.3%

Question: And the “Fibrosis (Ishak Score) 4, share of animals” value ([2]; HFD rabbits, 1.0 mg/kg p.o.)?
Answer: 0.0%

Question: What about the “Fibrosis (Ishak Score) 5, share of animals” value ([2]; HFD rabbits, 1.0 mg/kg p.o.) of the same molecule?
Answer: 0.0%

Question: And the “Inflammation score 0 (no foci)” value ([2]; HFD rabbits, 1.0 mg/kg p.o.)?
Answer: 14.3%

Question: What about the “Inflammation score 1 (<2 foci)” value ([2]; HFD rabbits, 1.0 mg/kg p.o.) of the same molecule?
Answer: 71.4%

Question: What about the “Inflammation score 2 (2–4 foci)” value ([2]; HFD rabbits, 1.0 mg/kg p.o.) of the same molecule?
Answer: 14.3%

Question: And the “Inflammation score 3 (> 4 foci)” value ([2]; HFD rabbits, 1.0 mg/kg p.o.)?
Answer: 0.0%

Question: What about the “Liver steatosis (Oil Red O staining)” value ([2]; HFD rabbits, 1.0 mg/kg, not significantly different from controls) of the same molecule?
Answer: mild beneficial effect

Question: What about the “Picrosirius Red percentage of fibrosis area” value ([2]; HFD rabbits, 1.0 mg/kg, p < 0.05 vs. HFD + Veh) of the same molecule?
Answer: normalized

Question: And the “Vimentin positivity in liver” value ([2]; HFD rabbits, 1.0 mg/kg, p = 0.072 vs. HFD + Veh)?
Answer: borderline reduction

Question: What about the “Ballooning score 0 (no ballooning)” value ([2]; HFD rabbits, 5.0 mg/kg p.o.) of the same molecule?
Answer: 0.0%

Question: What about the “Ballooning score 1 (few ballooned cells)” value ([2]; HFD rabbits, 5.0 mg/kg p.o.) of the same molecule?
Answer: 57.1%

Question: And the “Ballooning score 2 (prominent ballooning), share of animals” value ([2]; HFD rabbits, 5.0 mg/kg p.o.)?
Answer: 42.9%

Question: And the “Fibrosis (Ishak Score) 0, share of animals” value ([2]; HFD rabbits, 5.0 mg/kg p.o.)?
Answer: 0.0%

Question: And the “Fibrosis (Ishak Score) 1, share of animals” value ([2]; HFD rabbits, 5.0 mg/kg p.o.)?
Answer: 0.0%

Question: And the “Fibrosis (Ishak Score) 2, share of animals” value ([2]; HFD rabbits, 5.0 mg/kg p.o.)?
Answer: 42.8%

Question: What about the “Fibrosis (Ishak Score) 3, share of animals” value ([2]; HFD rabbits, 5.0 mg/kg p.o.) of the same molecule?
Answer: 42.8%

Question: What about the “Fibrosis (Ishak Score) 4, share of animals” value ([2]; HFD rabbits, 5.0 mg/kg p.o.) of the same molecule?
Answer: 14.3%

Question: What about the “Fibrosis (Ishak Score) 5, share of animals” value ([2]; HFD rabbits, 5.0 mg/kg p.o.) of the same molecule?
Answer: 0.0%

Question: And the “Inflammation score 0 (no foci)” value ([2]; HFD rabbits, 5.0 mg/kg p.o.)?
Answer: 0.0%

Question: And the “Inflammation score 1 (<2 foci)” value ([2]; HFD rabbits, 5.0 mg/kg p.o.)?
Answer: 100.0%

Question: And the “Inflammation score 2 (2–4 foci)” value ([2]; HFD rabbits, 5.0 mg/kg p.o.)?
Answer: 0.0%

Question: What about the “Inflammation score 3 (> 4 foci)” value ([2]; HFD rabbits, 5.0 mg/kg p.o.) of the same molecule?
Answer: 0.0%

Question: What about the “Liver steatosis (Oil Red O staining)” value ([2]; HFD rabbits, 0.3, 1.0, 5.0 mg/kg) of the same molecule?
Answer: without significant differences among HFD groups

Question: And the “Galectin-3 immunohistochemical positivity in liver” value ([2]; HFD rabbits, all selvigaltin treatments (0.3, 1.0, 5.0 mg/kg))?
Answer: only partially abated

Question: What about the Kd [3] of the same molecule?
Answer: 770 nM

Question: And the “Collagen protein in liver homogenate” value ([4]; 0.3 mg/kg p.o.)?
Answer: 57.63 ± 2.73 µg/mg Liver

Question: And the “IL6 protein in liver homogenate” value ([4]; 0.3 mg/kg p.o.)?
Answer: 76.12 ± 8.47 pg/g Liver

Question: What about the “TNFα protein in liver homogenate” value ([4]; 0.3 mg/kg p.o.) of the same molecule?
Answer: 1.61 ± 0.54 pg/mg Liver

Question: And the “Collagen protein in liver homogenate” value ([4]; 1.0 mg/kg p.o.)?
Answer: 45.25 ± 3.42 µg/mg Liver

Question: And the “IL6 protein in liver homogenate” value ([4]; 1.0 mg/kg p.o.)?
Answer: 63.53 ± 20.39 pg/g Liver

Question: And the “TNFα protein in liver homogenate” value ([4]; 1.0 mg/kg p.o.)?
Answer: 1.24 ± 0.58 pg/mg Liver

Question: And the “Collagen protein in liver homogenate” value ([4]; 5.0 mg/kg p.o.)?
Answer: 50.86 ± 5.22 µg/mg Liver

Question: What about the “IL6 protein in liver homogenate” value ([4]; 5.0 mg/kg p.o.) of the same molecule?
Answer: 64.27 ± 18.36 pg/g Liver

Question: And the “TNFα protein in liver homogenate” value ([4]; 5.0 mg/kg p.o.)?
Answer: 1.33 ± 0.68 pg/mg Liver
